Assay results: patent US5508269A, “Aminoglycoside formulation for aerosolization” (priority 1994, dated 1996)
Converted amounts (≈) assume the structure as drawn. “And” between values parts separate entries of the source, which are not always exact repeats. Equal entries are not always repeated. Where two headings read alike, the source gives them in different places.

Legend:
[1] = cited from earlier work; for health of CF patients (in words): aerosol administration, carbenicillin and gentamicin, twenty CF patients, Lancet 1981
Pseudomonas aeruginosa [2] = experiment: MIC of tobramycin for P. aeruginosa isolates from sputum of CF patients; format: cell-based; conditions: for # of Patients (isolate with maximum density) / Cumulative Frequency (isolate with maximum density): most common isolate; for Cumulative Frequency (isolate with maximum MIC): most resistant isolate
Protocol: This study was a one-year review of all microbiologic records at Children's Hospital in Seattle. All positive Pseudomonas aeruginosa culture data were collated that occurred in patients with Cystic Fibrosis. If multiple cultures from a single individual had been obtained, the first culture was taken as representative.
MIC90 is the concentration of the drug which inhibits 90% of Pseudomonas aeruginosa isolates. Sputum samples from CF patients were cultured to produce individual colony forming units (CFUs). The MIC was then determined for individual CFUs. CFUs were considered different isolates if their MICs were different.

clinical = format: in vivo, CF patients; conditions: for Sputum Tobramycin Concentrations / Serum Tobramycin: Baseline; for Sputum Tobramycin Concentrations: per subject or mean line; for Serum Tobramycin / concentration at 1 h / concentration at 2 h: single subjects 001-005 in order; for concentration at 10 min / concentration at 1 h / concentration at 2 h: human, inhaled or intranasal, 300 mg; for concentration at 1 h: 1 hour after aerosol; for concentration at 2 h: 2 hours after aerosol
Text: The doses were separated by at least 2 days and not more than 5 days.

[3] = format: in vivo, CF patients; conditions: for ± % change FEV1: 30 min after aerosol, 300 mg in 5 ml 1/4 NS, single subjects 001-005 in order
Protocol: The doses were separated by at least 2 days and not more than 5 days. Peak serum and sputum concentrations were assessed and results are seen in Tables 5 and 6.
(§1) Sixty patients were enrolled. Each patient received, in random order, one administration from each nebulizer delivery system. Each aerosol administration was separated by a minimum of 48 hr. […] Airway irritation and acute bronchospasm were assessed by measuring spirometry immediately prior to and 30 min post-completion of aerosol administration. A decrease in FEV1>15% in the 30 min spirometry test was considered evidence of bronchospasm.

[4] = Clinical Trial II, sputum tobramycin levels with three nebulizers; format: in vivo, patients with cystic fibrosis; conditions: for sputum tobramycin level, grand mean: 20 patients
Protocol: This was an open label, multicenter, randomized, cross-over three arm study. Each arm was different nebulizer delivery system. Two arms deliver the same tobramycin formulation.
2. […] The number of inhalations required as recorded.
3. […] The number of inhalations required was recorded.
as §1, with “Sixty patients were enrolled.” left out
Immediately after completing the aerosol therapy, the subject rinsed with 30 ml of normal saline through the mount, gargled for 5-10 seconds and expectorated the rinse. This was repeated for a total of three rinses. Sputum specimens were collected at 10 minutes after rinsing oral cavity and 2 hours after completion of the aerosol drug administration. […] Spirometry was obtained 30 minutes following completion of the aerosol drug administration. Following the last aerosol treatment of the study, patients received a brief physical exam after post-spirometry has been measured.

[5] = Accelerated stability study at 40° C; format: physicochemical; conditions: pH greater than 7.0
Text: The higher temperature was chosen to accelerate any degradation process. […] Color was examined by KS scale.

[6] = Preliminary pharmacokinetics of tobramycin in sputum after aerosol; format: in vivo, patients with CF; conditions: 20 mg/ml in 30 ml half normal saline; for Cmax: Ultraneb 99, 200 inhalations, twenty patients
Protocol: These levels ranged from 310.4 μg/gm to 5,941 μg/gm, with median level at 1,606 μg/gm). The sputum levels declined rapidly after 30 minutes, reaching a minimum at four hours.

Pseudomonas aeruginosa [7] = experiment: Previously studied 80 mg doses of tobramycin; format: in vivo, patients; conditions: initially
Text: If any degree of drug resistance developed, only a small percentage of patients would be effectively treated.

P. aeruginosa = conditions: cited from earlier work
[8] = cited from earlier work
[9] = cited from earlier work; remark: listed apart in the source
Pseudomonas aeruginosa [10] = conditions: Pedia Pulmonol. 6:91-8 (1989); cited from earlier work
[11] = Sidestream, 300 mg in 5 ml 1/4 NS
[12] = serum, Serum Tobramycin, Pari LC, 300 mg in 5 ml 1/4 NS

Compound: CC1(C)S[C@@H]2[C@H](NC(=O)C(C(=O)O)c3ccccc3)C(=O)N2[C@H]1C(=O)O (stereo partly shown) [carbenicillin]
- health of CF patients (in words) [1]: can improve the health of CF patients

Compound: NC[C@H]1O[C@H](O[C@H]2[C@H](O)[C@@H](O[C@H]3O[C@H](CO)[C@@H](O)[C@H](N)[C@H]3O)[C@H](N)C[C@@H]2N)[C@H](N)C[C@@H]1O [tobramycin]
- share of isolates whose MIC is exceeded approximately ten-fold by a sputum level of 128 μg/gm (Pseudomonas aeruginosa [2]; 128 μg/gm sputum level approximately ten-fold greater than MIC): 90%
- share of isolates whose MIC is reached by a sputum level of 128 μg/gm (Pseudomonas aeruginosa [2]; 128 μg/gm sputum level greater than or equal to MIC): 98%
- # of Patients (isolate with maximum density) (Pseudomonas aeruginosa [2]; MIC 1 μg/ml, n=58): 9
- Cumulative Frequency (isolate with maximum density) (Pseudomonas aeruginosa [2]; MIC 1 μg/ml, n=58): 78%
- Cumulative Frequency (isolate with maximum MIC) (Pseudomonas aeruginosa [2]; MIC 1 μg/ml, n=58): 67%
- # of Patients (isolate with maximum density) (Pseudomonas aeruginosa [2]; MIC 2 μg/ml, n=58): 3
- Cumulative Frequency (isolate with maximum density) (Pseudomonas aeruginosa [2]; MIC 2 μg/ml, n=58): 83%
- Cumulative Frequency (isolate with maximum MIC) (Pseudomonas aeruginosa [2]; MIC 2 μg/ml, n=58): 75%
- # of Patients (isolate with maximum density) (Pseudomonas aeruginosa [2]; MIC 4 μg/ml, n=58): 2
- Cumulative Frequency (isolate with maximum density) (Pseudomonas aeruginosa [2]; MIC 4 μg/ml, n=58): 86%
- Cumulative Frequency (isolate with maximum MIC) (Pseudomonas aeruginosa [2]; MIC 4 μg/ml, n=58): 83%
- # of Patients (isolate with maximum density) (Pseudomonas aeruginosa [2]; MIC 8 μg/ml, n=58): 2
- Cumulative Frequency (isolate with maximum density) (Pseudomonas aeruginosa [2]; MIC 8 μg/ml, n=58): 90%
- Cumulative Frequency (isolate with maximum MIC) (Pseudomonas aeruginosa [2]; MIC 8 μg/ml, n=58): 86%
- # of Patients (isolate with maximum density) (Pseudomonas aeruginosa [2]; MIC 16 μg/ml, n=58): 2
- Cumulative Frequency (isolate with maximum density) (Pseudomonas aeruginosa [2]; MIC 16 μg/ml, n=58): 93%
- Cumulative Frequency (isolate with maximum MIC) (Pseudomonas aeruginosa [2]; MIC 16 μg/ml, n=58): 90%
- # of Patients (isolate with maximum density) (Pseudomonas aeruginosa [2]; MIC 32 μg/ml, n=58): 1
- Cumulative Frequency (isolate with maximum density) (Pseudomonas aeruginosa [2]; MIC 32 μg/ml, n=58): 95%
- Cumulative Frequency (isolate with maximum MIC) (Pseudomonas aeruginosa [2]; MIC 32 μg/ml, n=58): 93%
- # of Patients (isolate with maximum density) (Pseudomonas aeruginosa [2]; MIC 64 μg/ml, n=58): 1
- Cumulative Frequency (isolate with maximum density) (Pseudomonas aeruginosa [2]; MIC 64 μg/ml, n=58): 97%
- Cumulative Frequency (isolate with maximum MIC) (Pseudomonas aeruginosa [2]; MIC 64 μg/ml, n=58): 95%
- # of Patients (isolate with maximum density) (Pseudomonas aeruginosa [2]; MIC 128 μg/ml, n=58): 2
- Cumulative Frequency (isolate with maximum density) (Pseudomonas aeruginosa [2]; MIC 128 μg/ml, n=58): 98%
- Cumulative Frequency (isolate with maximum MIC) (Pseudomonas aeruginosa [2]; MIC 128 μg/ml, n=58): 98%
- # of Patients (isolate with maximum density) (Pseudomonas aeruginosa [2]; MIC 256 μg/ml, n=58): 1
- Cumulative Frequency (isolate with maximum density) (Pseudomonas aeruginosa [2]; MIC 256 μg/ml, n=58): 100%
- Cumulative Frequency (isolate with maximum MIC) (Pseudomonas aeruginosa [2]; MIC 256 μg/ml, n=58): 100%
- # of Patients (isolate with maximum density) (Pseudomonas aeruginosa [2]; MIC .25 μg/ml, n=58): 26
- Cumulative Frequency (isolate with maximum density) (Pseudomonas aeruginosa [2]; MIC .25 μg/ml, n=58): 45%
- Cumulative Frequency (isolate with maximum MIC) (Pseudomonas aeruginosa [2]; MIC .25 μg/ml, n=58): 36%
- # of Patients (isolate with maximum density) (Pseudomonas aeruginosa [2]; MIC .5 μg/ml, n=58): 10
- Cumulative Frequency (isolate with maximum density) (Pseudomonas aeruginosa [2]; MIC .5 μg/ml, n=58): 63%
- Cumulative Frequency (isolate with maximum MIC) (Pseudomonas aeruginosa [2]; MIC .5 μg/ml, n=58): 53%
- MIC (Pseudomonas aeruginosa [2]; Pseudomonas aeruginosa): 128 µg/mL
- inhibition at 128 µg/mL (Pseudomonas aeruginosa [2]; Pseudomonas aeruginosa, read-out: inhibition of most resistant and most common isolates): 98%
- MIC (Pseudomonas aeruginosa [2]; Table 3: most tobramycin-resistant isolate of each patient, n=58, number of patients on same line): .25 µg/mL and .5 µg/mL and 1 µg/mL and 2 µg/mL and 4 µg/mL and 8 µg/mL and 16 µg/mL and 32 µg/mL and 64 µg/mL and 256 µg/mL
- MIC (Pseudomonas aeruginosa [2]; Table 4: most common isolate (maximum density) of each patient, n=58, number of patients on same line): .25 µg/mL and .5 µg/mL and 1 µg/mL and 2 µg/mL and 4 µg/mL and 8 µg/mL and 16 µg/mL and 32 µg/mL and 64 µg/mL and 128 µg/mL and 256 µg/mL
- Sputum Tobramycin Concentrations (clinical; Pari LC, 300 mg in 5 ml 1/4 NS): bql (< 20 μg/gm)
- Serum Tobramycin (clinical; Pari LC, 300 mg in 5 ml 1/4 NS): not detected
- achievement of target sputum concentration (in words) (clinical; Sidestream and Pari LC, target 128-1000 μg/g, 300 mg in 5 ml 1/4 NS): able to achieve a target concentrations of tobramycin in sputum
- Sputum Tobramycin Concentrations (clinical; [11]): bql (< 20 μg/gm)
- Serum Tobramycin (clinical; [11]): not detected
- concentration at 10 min (clinical; in vivo, Sidestream, 10 min, 5 subjects): 527000 ± 586000 ng/g
- concentration at 1 h (clinical; [12]): 500 ng/mL
- concentration at 2 h (clinical; [12]): 400 ng/mL
- concentration at 1 h (clinical; serum, Serum Tobramycin, Sidestream, 300 mg in 5 ml 1/4 NS): 200 ng/mL
- concentration at 10 min (clinical; sputum, 300 mg in 5 ml of 60 mg/ml in 1/4 NS, read-out: sputum concentration achieved (target concentration)): > 128000 ng/g
- concentration at 10 min (clinical; sputum, Sputum Tobramycin Concentrations, Mean/Std Dev, Pari LC, 10 min, 5 subjects): 811000 ± 677000 ng/g
- concentration at 2 h (clinical; sputum, Sputum Tobramycin Concentrations, Sidestream, 300 mg in 5 ml 1/4 NS): 57500 ng/g
- safety of dosage (in words) ([3]; 300 mg in 5 ml of 60 mg/ml in 1/4 NS): extremely safe
- ± % change FEV1 ([3]; Pari LC): -1.2% and 1.2% and -0.6% and -2% and -5%
- ± % change FEV1 ([3]; Sidestream): -2.2% and 0.0% and -7.6% and -1%
- sputum tobramycin level, grand mean ([4]; Pari LC, 0, 300 mg in 5 ml 0.225 NS): 0 µg
- sputum tobramycin level, grand mean ([4]; Pari LC, 10 min, 300 mg in 5 ml 0.225 NS): 639.1 µg
- sputum tobramycin level, grand mean ([4]; Pari LC, 1 hr, 300 mg in 5 ml 0.225 NS): 117.0 µg
- sputum tobramycin level, grand mean ([4]; Pari LC, 2 hr, 300 mg in 5 ml 0.225 NS): 77.6 µg
- sputum tobramycin level, grand mean ([4]; Sidestream, 0 hr, 300 mg in 5 ml 0.225 NS): 0 µg
- sputum tobramycin level, grand mean ([4]; Sidestream, 10 min, 300 mg in 5 ml 0.225 NS): 465.3 µg
- sputum tobramycin level, grand mean ([4]; Sidestream, 1 hr, 300 mg in 5 ml 0.225 NS): 75.7 µg
- sputum tobramycin level, grand mean ([4]; Sidestream, 2 hr, 300 mg in 5 ml 0.225 NS): 88.8 µg
- sputum tobramycin level, grand mean ([4]; Ultra Neb, 0 hr, 600 mg in 30 ml 0.45% NS): 0 µg
- sputum tobramycin level, grand mean ([4]; Ultra Neb, 10 min, 600 mg in 30 ml 0.45% NS): 1335.7 µg
- sputum tobramycin level, grand mean ([4]; Ultra Neb, 1 hr, 600 mg in 30 ml 0.45% NS): 360.0 µg
- sputum tobramycin level, grand mean ([4]; Ultra Neb, 2 hr, 600 mg in 30 ml 0.45% NS): 158.8 µg
- concentrations delivered to the endobronchial space (in words) ([4]; formulation used with a jet nebulizer): in the efficacious range
- endobronchial concentration with half dosage (in words) ([4]; human, in vivo): sufficient to achieve therapeutically effective concentration of tobramycin in the endobronchial space
- degradation of tobramycin (in words) [5]: degradation of tobramycin occurs
- time of minimum sputum level ([6]; Ultraneb 99): four
- Cmax ([6]; human, sputum, inhaled or intranasal, read-out: peak sputum level, median): 1.61e+06 ng/g
- Cmax ([6]; human, sputum, inhaled or intranasal, read-out: peak sputum levels, range): 310000 to 5.94e+06 ng/g
- Tmax ([6]; human, sputum, inhaled or intranasal, Ultraneb 99, read-out: time of peak sputum levels after therapy): 10 to 30 min
- share of patients in whom dose would be predicted to be efficacious (Pseudomonas aeruginosa [7]): sixty to seventy
- reduction in the density of P. aeruginosa in sputum, factor (P. aeruginosa; aerosolized, all three 28-day periods): 100
- improvement with aerosolized treatment (in words) (P. aeruginosa; entire three-period study): significant improvement
- solubility [8]: 160 mg/mL (≈ 342 mM)
- binding by sputum [9]: up to 90%
- treatment of exacerbations in CF (in words) ([1]; parenteral, short period of time): successfully treat exacerbations which occur in patients with CF
- efficacy of 80 mg doses (in words) (Pseudomonas aeruginosa [10]): reported effective

Compound: gentamicin
- health of CF patients (in words) [1]: can improve the health of CF patients
